Consider 12 compounds from patent US8846699B2, “Quinazoline derivatives as a multiplex inhibitor and method for the preparation thereof” (Hanmi Pharm. Co., Ltd., priority 2005, dated 2014).

Test [1] has as its system Human Umbilical Vein Endothelial Cell (HUVEC). The test can be described thus: Inhibitory effect on growth of human umbilical vein endothelial cell (HUVEC), MTS. It counts as cell-based. The note with it: Homo sapiens, 96 h, 10 ng/ml VEGF, absorbance 490 nm. Here is the method: HUVECs (Young Science, Inc) were suspended in a culture medium, EBM-2 (Endothelial Basic Media, Cambrex) supplemented with 2% bovine serum (Cambrex) and auxiliary additives for HUVEC culture (e.g., EGF, VEGF, FGF, etc., Cambrex), inoculated into a culture flask coated with 1% gelatin, and incubated in an incubator at 37° C. under 5% CO2 and 100% humidity.
100 μl of 5% bovine serum medium containing 10 ng/ml of vascular endothelial growth factor (VEGF) and auxiliary additives, while excluding other growth factors was added to each well of a 96-well plate. […] DMSO (Dimethylsulfoxide) was used to dissolve the test compounds, and the final concentration of DMSO was less than 1%.
100 μl of the diluted cell solution was added to each well of the 96-well plate, which was incubated in an incubator for 96 hours.
Then, 20 μl of MTS ([…], Promega) solution was added to each well of the plate, and the plate was incubated in an incubator for 4 hours to induce discoloration. After 4 hours, the pellets were dissolved by way of a thorough shaking, and the absorbance at 490 nm was determined.

A further test deals with VEGFR2 (KDR) (Homo sapiens (Human), UniProt P35968). Description: VEGFR2 (KDR) enzyme assay, fluorescence polarization. It counts as biochemical. The note with it: 5 μM ATP, poly(Glu, Tyr) substrate. Here is the method:
VEGFR2 (KDR, Proquinase) enzyme assay (auto-phosphorylation assay) was carried out by using Tyrosine Kinase Assay Kit Green (Panvera). The entire assay was conducted in accordance with VEGFR PTK inhibitor cellular activity test S.O.P.
A typical kinase inhibition reaction requires a protein tyrosine kinase, a suitable buffer solution system, a peptide substrate and ATP. In the present VEGFR tyrosine kinase assay, a buffer solution system containing 20 mM HEPES (pH 7.4), 5 mM MgCl2 and 2 mM MnCl2; 50 μM Na3VO4; 200 ng/10 μl VEGFR (Proquinase); 5 μM ATP; and 10 ng/ml poly(Glu, Tyr) (4:1, Sigma) as a substrate were used.
The compounds of Test Example 1 were used as control compounds at a concentration of 0.0001 to 10 μM. After 10 min, 10 μl of poly(Glu, Tyr) as a substrate was added to each well, and 10 μl of ATP was added thereto to initiate kinase reaction. The plate was incubated at room temperature for 1 hour, and 10 μl of 100 mM EDTA was added to each well to terminate the kinase reaction.
The added EDTA was mixed for 5 min. Thereafter, 10 μl of 10× anti-phosphotyrosine antibody (Panvera), 10 μl of 10×PTK Green Tracer (Panvera) and 30 μl of FP dilution buffer (Panvera) were added thereto, and the plate was incubated in a dark room at room temperature for 30 min.
For orientation: In fluorescence polarisation assays a small probe gives low polarisation when free and higher when bound to something large.

A further test concerns the target EGFR1 (HER-1) (Homo sapiens (Human), UniProt P00533). The test can be described thus: EGFR1 (HER-1) enzyme assay, fluorescence polarization. It counts as biochemical. As to conditions: 100 μM ATP, poly(Glu, Tyr) substrate.
In test [2] the test system is skin cancer cell line, A431. The test can be described thus: Inhibitory effect on growth of cancer cell line A431, SRB. The note with it: Homo sapiens, A-431, 72 h, overexpressed EGFR1 (HER-1). It counts as cell-based. The source says: (§1) A skin cancer cell line, A431 (ATCC: CRL-1555), a breast cancer cell line, SK-Br3 (ATCC: HTB-30), and a colon and rectal cancer cell line, SW-620 (ATCC: CCL-227) were used to test the degrees of cancer cell growth inhibition using a culture medium, DEME (Dulbecco's Modified Eagle's Medium, JBI) including 4.5 g/l of glucose and 1.5 g/l of sodium bicarbonate and supplemented with 10% FBS (fetal bovine serum, JBI).
(§2) The cancer cell lines stored in a liquid nitrogen tank were each quickly thawed at 37° C., and centrifuged to remove the medium. The resulting cell pellet was mixed with a culture medium, incubated in a culture flask at 37° C. under 5% CO2 for 2 to 3 days, and the medium was removed. The remaining cells were washed with DPBS (Dulbecco's Phosphate Buffered Saline, JBI) and separated from the flask by using Trypsin-EDTA solution, and the separated cells were diluted with a culture medium to a concentration of 1.0×10^6 cells/ml in case of A431 and SW-620, and 2.0×10^6 cells/ml in case of SK-Br3. 100 μl of the diluted cell solution was added to each well of a 96-well plate, which was incubated at 37° C. under 5% CO2 for 1 day.
(§3) In case that the test compound was not soluble in DMSO, a small amount of 1% HCl was added thereto and treated in a 40° C. water bath for 30 mins until complete dissolution was attained. The test compound solution was diluted with a culture medium to a final concentration of 10 μM, and then diluted 10 times serially to 10^−4. The final concentration of DMSO was less than 1%, and the control compounds of Test Example 1 were used at a concentration of 0.0001 to 10 μM.
(§4) The medium was removed from each well of the 96-well microplate, 100 μl of a diluted test compound solution was added to each well holding cultured cells, and the microplate was incubated at 37° C. under 5% CO2 for 72 hours. After removing the medium from the plate, 50 μl of 10% trichloroacetic acid was added to each well, and the plate was kept at 37° C. for 1 hour to fix the cells to the bottom of the plate. 10% trichloroacetic acid was removed from each well, the plate was dried, 100 μl of an SRB (Sulforhodamine-B, Sigma) dye solution was added thereto, and reacted for 10 mins. The SRB dye solution was prepared by dissolving SRB in 1% acetic acid to a concentration of 0.4%. After removing the dye solution, the plate was washed with water, and dried. When the dye solution was not removed by water, 1% acetic acid was used.
(§5) 150 μl of 10 mM trisma base (Sigma) was added to each well, and the absorbance at 570 nm was determined with a microplate reader (Molecular device).

Test [3] relates to breast cancer cell line, SK-Br3. Description: Inhibitory effect on growth of cancer cell line SK-Br3, SRB. As to conditions: Homo sapiens, SK-BR-3, 72 h, overexpressed EGFR2 (HER-2). The class given is cell-based.
Text: as §1, §2, §3, §4, §5

In test [4] the test system is colon and rectal cancer cell line, SW-620. The test can be described thus: Inhibitory effect on growth of cancer cell line SW-620, SRB. The class given is cell-based. The note with it: Homo sapiens, 72 h, not having overexpressed EGFR and EGFR2.
Text: as §1, §2, §3, §4, §5

Broadly, the IC50 is the concentration that inhibits the measured activity by half. A low value points to greater potency.

Chain of EGFR1 (HER-1) (P00533 25-1210): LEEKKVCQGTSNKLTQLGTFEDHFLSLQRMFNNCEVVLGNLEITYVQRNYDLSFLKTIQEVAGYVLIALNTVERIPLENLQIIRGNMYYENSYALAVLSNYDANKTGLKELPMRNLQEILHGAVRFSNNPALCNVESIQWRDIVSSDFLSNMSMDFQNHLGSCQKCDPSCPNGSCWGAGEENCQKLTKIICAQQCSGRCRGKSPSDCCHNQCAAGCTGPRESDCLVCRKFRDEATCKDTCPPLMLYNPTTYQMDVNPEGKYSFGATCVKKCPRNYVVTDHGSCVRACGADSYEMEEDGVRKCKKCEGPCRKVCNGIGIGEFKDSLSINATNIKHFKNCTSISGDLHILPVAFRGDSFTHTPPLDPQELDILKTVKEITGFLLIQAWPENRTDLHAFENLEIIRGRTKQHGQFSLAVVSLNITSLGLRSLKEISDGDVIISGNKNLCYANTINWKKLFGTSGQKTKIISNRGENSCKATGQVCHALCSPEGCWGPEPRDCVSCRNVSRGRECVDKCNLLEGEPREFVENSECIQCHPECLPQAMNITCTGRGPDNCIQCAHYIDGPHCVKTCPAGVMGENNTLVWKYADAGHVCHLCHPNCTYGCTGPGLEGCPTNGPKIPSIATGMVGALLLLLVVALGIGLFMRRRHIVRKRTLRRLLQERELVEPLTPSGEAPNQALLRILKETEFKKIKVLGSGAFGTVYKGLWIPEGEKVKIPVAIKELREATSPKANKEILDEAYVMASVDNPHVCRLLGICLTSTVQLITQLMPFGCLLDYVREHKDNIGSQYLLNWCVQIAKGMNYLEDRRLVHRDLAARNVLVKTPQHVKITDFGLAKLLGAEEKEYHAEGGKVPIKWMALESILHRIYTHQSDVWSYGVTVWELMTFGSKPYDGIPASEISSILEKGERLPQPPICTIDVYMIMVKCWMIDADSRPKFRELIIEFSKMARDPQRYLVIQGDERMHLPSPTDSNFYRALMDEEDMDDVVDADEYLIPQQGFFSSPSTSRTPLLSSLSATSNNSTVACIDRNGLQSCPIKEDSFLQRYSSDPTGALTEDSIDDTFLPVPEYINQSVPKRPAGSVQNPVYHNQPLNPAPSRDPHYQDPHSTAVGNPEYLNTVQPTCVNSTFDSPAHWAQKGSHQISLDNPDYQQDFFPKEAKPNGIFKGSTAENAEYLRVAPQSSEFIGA
Chain of VEGFR2 (KDR) (P35968 20-1356): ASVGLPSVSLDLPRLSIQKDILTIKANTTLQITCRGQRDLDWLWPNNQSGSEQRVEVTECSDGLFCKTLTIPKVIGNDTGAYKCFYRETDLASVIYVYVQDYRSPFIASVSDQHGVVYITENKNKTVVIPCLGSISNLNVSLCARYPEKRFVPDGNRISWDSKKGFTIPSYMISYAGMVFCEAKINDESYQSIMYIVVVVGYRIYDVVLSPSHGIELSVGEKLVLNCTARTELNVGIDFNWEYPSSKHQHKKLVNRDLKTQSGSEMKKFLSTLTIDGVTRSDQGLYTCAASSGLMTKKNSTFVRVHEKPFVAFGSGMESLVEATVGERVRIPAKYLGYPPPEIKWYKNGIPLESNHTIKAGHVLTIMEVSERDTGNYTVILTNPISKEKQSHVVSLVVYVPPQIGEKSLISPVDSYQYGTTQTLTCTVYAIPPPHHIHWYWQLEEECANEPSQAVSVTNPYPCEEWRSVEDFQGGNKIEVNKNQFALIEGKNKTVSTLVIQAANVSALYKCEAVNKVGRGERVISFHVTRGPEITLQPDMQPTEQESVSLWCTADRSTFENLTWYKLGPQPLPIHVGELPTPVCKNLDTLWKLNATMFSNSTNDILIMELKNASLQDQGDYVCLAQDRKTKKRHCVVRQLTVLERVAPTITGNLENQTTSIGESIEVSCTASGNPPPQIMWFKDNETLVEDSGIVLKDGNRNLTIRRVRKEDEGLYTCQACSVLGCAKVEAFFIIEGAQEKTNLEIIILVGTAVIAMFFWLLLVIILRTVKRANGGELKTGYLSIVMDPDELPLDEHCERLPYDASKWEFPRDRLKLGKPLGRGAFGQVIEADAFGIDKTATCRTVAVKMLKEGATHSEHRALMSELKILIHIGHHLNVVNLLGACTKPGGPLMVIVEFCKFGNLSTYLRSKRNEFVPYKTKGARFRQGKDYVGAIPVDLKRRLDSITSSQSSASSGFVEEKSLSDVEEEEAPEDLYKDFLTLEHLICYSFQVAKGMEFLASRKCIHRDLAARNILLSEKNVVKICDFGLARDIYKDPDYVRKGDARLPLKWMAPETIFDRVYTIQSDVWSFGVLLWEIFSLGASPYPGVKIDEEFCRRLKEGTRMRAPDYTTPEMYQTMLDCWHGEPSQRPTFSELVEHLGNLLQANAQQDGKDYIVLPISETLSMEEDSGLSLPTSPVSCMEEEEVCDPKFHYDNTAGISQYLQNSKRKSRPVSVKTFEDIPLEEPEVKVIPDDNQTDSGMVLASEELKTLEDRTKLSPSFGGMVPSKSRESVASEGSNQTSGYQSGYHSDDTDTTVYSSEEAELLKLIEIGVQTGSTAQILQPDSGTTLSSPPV

As for `C=CC(=O)Nc1cc2c(Nc3ccc(Br)cc3F)ncnc2cc1OCc1ccncc1` [Example 6, N-[4-(4-bromo-2-fluoro-phenylamino)-7-(pyridin-4-ylmethoxy)-quinazolin-6-yl]-acrylamide], the concentration for half-maximal inhibition (IC50) was 0.45 µM in test [1]; 0.5 µM at VEGFR2 (KDR); 0.056 µM against EGFR1 (HER-1); 0.168 µM in test [2]; 1.35 µM in test [3]; 8.46 µM in test [4].
Regarding `C=CC(=O)Nc1cc2c(Nc3ccc(F)c(F)c3F)ncnc2cc1OCC1CCN(C(C)=O)CC1` [Example 7, N-[7-(1-acetyl-piperidin-4-ylmethoxy)-4-(2,3,4-trifluoro-phenylamino)-quinazolin-6-yl]-acrylamide], the half-maximal inhibitory concentration (IC50) came out at 0.099 µM in test [1]; 0.25 µM at VEGFR2 (KDR); 0.026 µM against EGFR1 (HER-1); 0.038 µM in test [2]; 0.067 µM in test [3]; 9.57 µM in test [4].
For `C=CC(=O)Nc1cc2c(Nc3c(F)cc(Br)cc3F)ncnc2cc1OCC1CCN(C(C)=O)CC1` [Example 8, N-[7-(1-acetyl-piperidin-4-ylmethoxy)-4-(4-bromo-2,6-difluoro-phenylamino)-quinazolin-6-yl]-acrylamide], the IC50 in test [1] worked out at 0.098 µM; against VEGFR2 (KDR), 0.148 µM; at EGFR1 (HER-1), 0.013 µM; in test [2], 0.02 µM; in test [3], 0.149 µM; in test [4], 2.53 µM.
As to `C=CC(=O)Nc1cc2c(Nc3ccc(Br)cc3F)ncnc2cc1OCC1CCN(C(=O)NCCC)CC1` [Example 9, 4-[6-acryloylamino-4-(4-bromo-2-fluoro-phenylamino)-quinazolin-7-yloxymethyl]-piperidin-1-carboxylic acid propylamide], the IC50 was determined as 0.048 µM in test [1]; 0.045 µM on VEGFR2 (KDR); 0.036 µM against EGFR1 (HER-1); 0.051 µM in test [2]; 0.266 µM in test [3]; 2.58 µM in test [4].
`C=CC(=O)Nc1cc2c(Nc3ccc(Br)cc3F)ncnc2cc1OCC1CCN(C(=O)CN(C)C)CC1` [Example 10, N-{4-(4-bromo-2-fluoro-phenylamino)-7-[1-(2-dimethylamino-acetyl)-piperidin-4-ylmethoxy]-quinazolin-6-yl}-acrylamide]: the half-inhibitory concentration (IC50) was 0.049 µM in test [1]; 0.055 µM against VEGFR2 (KDR); 0.006 µM at EGFR1 (HER-1); 0.008 µM in test [2]; 0.33 µM in test [3]; 2.75 µM in test [4].
On to `C=CC(=O)Nc1cc2c(Nc3ccc(Br)cc3F)ncnc2cc1OCC1CCN(C(=O)NC(C)(C)C)CC1` [Example 11, 4-[6-acryloylamino-4-(4-bromo-2-fluoro-phenylamino)-quinazolin-7-yloxymethyl]-piperidin-1-carboxylic acid t-butylamide], for which the IC50 worked out at 0.041 µM in test [1]; 0.05 µM on VEGFR2 (KDR); 0.014 µM on EGFR1 (HER-1); 0.059 µM in test [2]; 0.456 µM in test [3]; 5.68 µM in test [4].
As to `C=CC(=O)Nc1cc2c(Nc3ccc(Br)cc3F)ncnc2cc1OCCCNC(=O)CN(C)C` [Example 12, N-{4-(4-bromo-2-fluoro-phenylamino)-7-[3-(2-dimethylamino-acetylamino)-propoxy]-quinazolin-6-yl}-acrylamide], the IC50 in test [1] came out at 0.156 µM; against VEGFR2 (KDR), 0.347 µM; at EGFR1 (HER-1), 0.002 µM; in test [2] it was 0.017 µM; in test [3], 0.157 µM; in test [4], 2.5 µM.
`C=CC(=O)Nc1cc2c(Nc3ccc(Br)cc3F)ncnc2cc1OCCCNC(C)=O` [Example 13, N-[7-(3-acetylamino-propoxy)-4-(4-bromo-2-fluoro-phenylamino)-quinazolin-6-yl]-acrylamide]: the IC50 in test [1] is 0.079 µM; at VEGFR2 (KDR), 0.157 µM; on EGFR1 (HER-1) it was 0.004 µM; in test [2], 0.028 µM; in test [3] it was 0.045 µM; in test [4] it was 10 µM.
As to `C=CC(=O)Nc1cc2c(Nc3ccc(Br)cc3F)ncnc2cc1OCCCNC(=O)C(F)(F)F` [Example 14, N-{4-(4-bromo-2-fluoro-phenylamino)-7-[3-(2,2,2-trifluoro-acetylamino)-propoxy]-quinazolin-6-yl}-acrylamide], the IC50 in test [1] came out at 0.286 µM; on VEGFR2 (KDR), 0.591 µM; at EGFR1 (HER-1), 0.059 µM; in test [2] it was 0.097 µM; in test [3], 0.057 µM; in test [4], 10 µM.
For `C=CC(=O)Nc1cc2c(Nc3ccc(Br)cc3F)ncnc2cc1OCCCNC(=O)CS(C)(=O)=O` [Example 15, N-{4-(4-bromo-2-fluoro-phenylamino)-7-[3-(2-methanesulfonyl-acetylamino)-propoxy]-quinazolin-6-yl}-acrylamide], the IC50 in test [1] turned out to be 0.15 µM; against VEGFR2 (KDR) it was 0.33 µM; at EGFR1 (HER-1) it was 0.068 µM; in test [2], 0.118 µM; in test [3], 0.734 µM; in test [4], 9.57 µM.
Consider `C=CC(=O)Nc1cc2c(Nc3ccc(Br)cc3F)ncnc2cc1OCCCNC(=O)NCC` [Example 16, N-{4-(4-bromo-2-fluoro-phenylamino)-7-[3-(3-ethyl-ureido)-propoxy]-quinazolin-6-yl}-acrylamide], for which the IC50 in test [1] was determined as 0.102 µM; against VEGFR2 (KDR), 0.208 µM; against EGFR1 (HER-1), 0.011 µM; in test [2], 0.018 µM; in test [3], 0.228 µM; in test [4], 10 µM.
Turning to `C=CC(=O)Nc1cc2c(Nc3ccc(Br)cc3F)ncnc2cc1OCCCNC` [Example 17, N-[4-(4-bromo-2-fluoro-phenylamino)-7-(3-methylamino-propoxy)-quinazolin-6-yl]-acrylamide], the concentration for half-maximal inhibition (IC50) in test [1] is 0.087 µM; at VEGFR2 (KDR), 0.154 µM; against EGFR1 (HER-1) it was 0.003 µM; in test [2], 0.011 µM; in test [3], 0.064 µM; in test [4] it was 2.02 µM.
